Measurements taken from PMC7794397, “Curbing gastrointestinal infections by defensin fragment modifications without harming commensal microbiota” (Communications Biology, 2021).
In brackets after ≈: the same amount, converted by molar mass. Several values for one entry are separate records, joined by “and”; a condition that tells them apart may be missing. Equal entries are not always repeated. Residues, ends and D or L forms follow the SMILES beside them. *: point of attachment. Palmitoyl = CCCCCCCCCCCCCCCC(=O)*; AEEA = NCCOCCOCC(=O)O

Tests used:
S. Typhimurium = assay type: cell-based; settings: radial diffusion assay
Description: (§1) Antimicrobial activity was analyzed by radial diffusion assay. Log-phase bacteria were cultivated for up to 18 h in TSB (TSB, Becton Dickinson, USA), washed and diluted to 4 × 10^6 CFU in 10 ml agar. Bacteria were incubated in 10 ml of 10 mM sodium phosphate, pH 7.4, containing 0.3 mg/ml of TSB powder and 1% (w/v) low EEO-agarose (AppliChem). 1 µg of each lipopeptide was pipetted into punched wells in a final volume of 4 µl and diffused into the gel for 3 h at 37 °C. After that, a nutrient-rich gel with 6% TSB (w/v) and 1% agarose in 10 mM sodium phosphate buffer was poured on top of the first gel and incubated for up to 24 h at 37 °C. Then the diameter of inhibition zones was measured.

P. aeruginosa PAO1 [1] = experiment: Treatment of established biofilms; assay type: cell-based; set-up: viable bacteria in biofilm: unit not given here; settings: for viable bacteria in biofilm: 24 h old biofilm, 1 h treatment
Description: (§2) Then, planktonic bacteria were removed by two wash steps with PBS. […] Afterward, adherent bacteria in each well were resuspended, and the number of viable bacteria was determined microbiologically. […] The biofilm degradation assay was performed in agreement with the original report describing this method first.

S. aureus ATCC25923 [2] = experiment: Treatment of established biofilms; assay type: cell-based; settings: for viable bacteria in biofilm: 24 h old biofilm, 1 h treatment
Description: as §2

P. aeruginosa PAO1 [3] = assay type: cell-based
Description: (§3) After incubation at 37 °C and 150 rpm for 1–120 min, a sample of 50 µl was taken from the suspension and added to 50 µl of a 0.05% (v/v) sodium polyanethol sulfonate (Sigma-Aldrich) solution, which neutralizes remaining peptide activity, and plated on LB agar to determine the number of viable bacteria.

S. aureus ATCC25923 [4] = assay type: cell-based
Description: as §3

[5] = Oral tolerance test (safety) in mice; assay type: in vivo, C57BL/6N mice; settings: for Creatinin / GOT: serum; for Creatinin / GOT / Bodyweight loss: individual animals
Description: C57BL/6N mice were generated and maintained (including breeding and housing) at the animal facilities of the Helmholtz Centre for Infection Research (HZI) under enhanced specific pathogen-free (SPF) conditions. Animals used in the experiments were gender and age matched. Female and male mice with an age of 8–12 weeks were used. Sterilized food and water ad libitum was provided. Mice were kept under a strict 12-h light cycle (lights on at 7:00 am and off at 7:00 pm) and housed in groups of two to six mice per cage. All mice were euthanized by asphyxiation with CO2 and cervical dislocation. All animal experiments were performed in agreement with the local government of Lower Saxony, Germany (approved permission No. 33.19-42502-04-18/2499).
Age- and gender-matched mice received two doses of peptides (0, 125 µg or 250 µg) solved in 100 µl PBS orally per day. Bodyweight and appearance were recorded. The following day, mice were sacrificed and stomach, kidney, spleen, liver, small intestine, cecum, and colon were removed for histological scoring. Around 1 ml of blood was taken from the heart to measure inflammatory markers, including creatinine in the kidney and the enzyme levels of glutamate-oxalacetate-transaminase (GOT) in the liver.

S. aureus NCTC8325 = experiment: Transmission and scanning electron microscopy; assay type: cell-based; settings: 37.5 µM Pam-3 (4x MIC), 30 min
Description: As a control, bacteria were exposed to 0.01% acetic acid. Afterward bacteria were fixed in Karnovsky’s reagent.
For transmission electron microscopy (TEM), bacteria were high-pressure frozen (HPF Compact 03, Engineering Office M. Wohlwend GmbH) in capillaries, freeze-substituted (AFS2, Leica Microsystems) with 2% OsO4 and 0.4% uranyl acetate in acetone as substitution medium and embedded in EPON. Ultrathin sections were stained with uranyl acetate and lead citrate and analyzed with a Tecnai Spirit (Thermo Fisher Scientific) operated at 120 kV.
For scanning electron microscopy (SEM), bacteria were washed in PBS and finally fixed with 1% OsO4 on ice for 1 h. Next, samples were prepared on polylysin-coated coverslips, dehydrated in a graduated series to 100% ethanol and critical point dried (Polaron) with CO2. Finally, samples were sputter-coated with a 3 nm thick layer of platinum (Safematic CCu-010) and examined with a Hitachi Regulus 8230 field emission scanning electron microscope (Hitachi) at an accelerating voltage of 5 kV.

[6] = test system: multidrug resistant bacteria belonging to the ESKAPE pathogen panel; assay type: cell-based
Description: Bactericidal activity was assessed by broth microdilution assay. […] After incubation, 100 µl of 6% TSB (w/v) were added and absorbance was measured at 600 nm (Tecan, Switzerland) and monitored for 18 h. Afterward, 100 µl per well were plated on LB agar to determine the numbers of viable bacteria microbiologically. Bactericidal activity is expressed as the LC99.9, the lowest concentration that killed ≥99.9 % of bacteria.

[7] = test system: several pathogenic bacteria; experiment: Radial diffusion assay, all tested strains; assay type: cell-based
Description: as §1

[8] = histology, animals with signs of pathology/total, treated twice with 250 µg orally, within 24 h
[9] = one day after 2 x 125 µg orally, N = 4
[10] = one day after 2 x 250 µg orally, N = 6

## CCCCCCCCCCCCCCCC(=O)NCCOCCOCC(=O)N[C@@H](CCCNC(=N)N)C(=O)NCC(=O)N[C@@H](CCCCN)C(=O)N[C@@H](C)C(=O)N[C@@H](CCCCN)C(=O)N[C@@H](CS)C(=O)N[C@@H](CS)C(=O)N[C@@H](CCCCN)C(=O)O [Pam-3] ({Palmitoyl-AEEA}-RGKAKCCK-OH; C-terminus assumed)
S. Typhimurium
  inhibition of S. Typhimurium growth (in words): consistently inhibited
P. aeruginosa PAO1 [1]; 300 µM, within 1 h, Kruskal–Wallis p = 0.0074
  elimination of bacteria in biofilms (in words): eliminated
P. aeruginosa PAO1 [1]; 9.375 µM Pam-3, experiment 1
  viable bacteria in biofilm: 1541667
P. aeruginosa PAO1 [1]; 9.375 µM Pam-3, experiment 2
  viable bacteria in biofilm: 3730000
P. aeruginosa PAO1 [1]; 9.375 µM Pam-3, experiment 3
  viable bacteria in biofilm: 2210000
P. aeruginosa PAO1 [1]; 18.75 µM Pam-3, experiment 1
  viable bacteria in biofilm: 800000
P. aeruginosa PAO1 [1]; 18.75 µM Pam-3, experiment 2
  viable bacteria in biofilm: 125000
P. aeruginosa PAO1 [1]; 18.75 µM Pam-3, experiment 3
  viable bacteria in biofilm: 1510000
P. aeruginosa PAO1 [1]; 37.5 µM Pam-3, experiment 1
  viable bacteria in biofilm: 70000
P. aeruginosa PAO1 [1]; 37.5 µM Pam-3, experiment 2
  viable bacteria in biofilm: 21111
P. aeruginosa PAO1 [1]; 37.5 µM Pam-3, experiment 3
  viable bacteria in biofilm: 362889
P. aeruginosa PAO1 [1]; 75 µM Pam-3, experiment 1
  viable bacteria in biofilm: 1100
P. aeruginosa PAO1 [1]; 75 µM Pam-3, experiment 2
  viable bacteria in biofilm: 67067
P. aeruginosa PAO1 [1]; 75 µM Pam-3, experiment 3
  viable bacteria in biofilm: 5525
P. aeruginosa PAO1 [1]; 150 µM Pam-3, experiment 1
  viable bacteria in biofilm: 333
P. aeruginosa PAO1 [1]; 150 µM Pam-3, experiment 2
  viable bacteria in biofilm: 433
P. aeruginosa PAO1 [1]; 150 µM Pam-3, experiment 3
  viable bacteria in biofilm: 167
P. aeruginosa PAO1 [1]; 300 µM Pam-3, 1 = no growth, experiment 1
  viable bacteria in biofilm: 1
P. aeruginosa PAO1 [1]; 300 µM Pam-3, 1 = no growth, experiment 2
  viable bacteria in biofilm: 1
P. aeruginosa PAO1 [1]; 300 µM Pam-3, 1 = no growth, experiment 3
  viable bacteria in biofilm: 1
S. aureus ATCC25923 [2]; 300 µM, within 1 h, Kruskal–Wallis p = 0.0026
  eradication of bacteria in biofilms: ~ 99.99%
S. aureus ATCC25923 [2]; 9.375 µM Pam-3, experiment 1
  viable bacteria in biofilm: 43066667 CFU/ml
S. aureus ATCC25923 [2]; 9.375 µM Pam-3, experiment 2
  viable bacteria in biofilm: 6050000 CFU/ml
S. aureus ATCC25923 [2]; 9.375 µM Pam-3, experiment 3
  viable bacteria in biofilm: 15666667 CFU/ml
S. aureus ATCC25923 [2]; 18.75 µM Pam-3, experiment 1
  viable bacteria in biofilm: 32200000 CFU/ml
S. aureus ATCC25923 [2]; 18.75 µM Pam-3, experiment 2
  viable bacteria in biofilm: 3550000 CFU/ml
S. aureus ATCC25923 [2]; 18.75 µM Pam-3, experiment 3
  viable bacteria in biofilm: 17250000 CFU/ml
S. aureus ATCC25923 [2]; 37.5 µM Pam-3, experiment 1
  viable bacteria in biofilm: 27300000 CFU/ml
S. aureus ATCC25923 [2]; 37.5 µM Pam-3, experiment 2
  viable bacteria in biofilm: 2333333 CFU/ml
S. aureus ATCC25923 [2]; 37.5 µM Pam-3, experiment 3
  viable bacteria in biofilm: 5966667 CFU/ml
S. aureus ATCC25923 [2]; 75 µM Pam-3, experiment 1
  viable bacteria in biofilm: 1496667 CFU/ml
S. aureus ATCC25923 [2]; 75 µM Pam-3, experiment 2
  viable bacteria in biofilm: 239889 CFU/ml
S. aureus ATCC25923 [2]; 75 µM Pam-3, experiment 3
  viable bacteria in biofilm: 3451667 CFU/ml
S. aureus ATCC25923 [2]; 150 µM Pam-3, experiment 1
  viable bacteria in biofilm: 150333 CFU/ml
S. aureus ATCC25923 [2]; 150 µM Pam-3, experiment 2
  viable bacteria in biofilm: 9167 CFU/ml
S. aureus ATCC25923 [2]; 150 µM Pam-3, experiment 3
  viable bacteria in biofilm: 24500 CFU/ml
S. aureus ATCC25923 [2]; 300 µM Pam-3, experiment 1
  viable bacteria in biofilm: 67 CFU/ml
S. aureus ATCC25923 [2]; 300 µM Pam-3, experiment 2
  viable bacteria in biofilm: 333 CFU/ml
S. aureus ATCC25923 [2]; 300 µM Pam-3, experiment 3
  viable bacteria in biofilm: 1300 CFU/ml
P. aeruginosa PAO1 [3]; 9.38 µM Pam-3
  time to eradication to the level of detection: 2 min
  time to killing of more than 90% of bacteria: ≤ 1 min
P. aeruginosa PAO1 [3]; PAO1
  MIC: 9.38 µM (≈ 12 µg/mL)
S. aureus ATCC25923 [4]; 9.38 µM Pam-3
  time to eradication to the level of detection: 30 min
  time to killing of more than 90% of bacteria: ≤ 15 min
S. aureus ATCC25923 [4]; ATCC25923
  MIC: 9.38 µM (≈ 12 µg/mL)
[5]; histology and serum markers 24 h after two doses of 250 µg orally
  acute toxicity (in words): did not reveal acute toxicity
[5]; [8]
  Cecum and Colon: Dysplasia: 0/6
  Cecum and Colon: Inflammation: 0/6
  Duodenum-Jejunum: Dysplasia: 0/6
  Duodenum-Jejunum: Inflammation: 0/6
  Jejunum-Ileum: Dysplasia: 2/6
  Jejunum-Ileum: Inflammation: 0/6
  Jejunum-Ileum: Paneth cells: 0/6
  Kidney: Glomeruli: 0/6
  Kidney: Papilla: 0/6
  Kidney: Pelvis: 0/6
  Kidney: Tubuli: 3/6
  Liver: Anisocaryosis: 0/6
  Liver: Double nucleated cells: 0/6
  Liver: Fatty change: 0/6
  Liver: Glycogen: 0/6
  Liver: Hematopoiesis: 0/6
  Liver: Lymphocytic aggregates: 0/6
  Stomach: Glycogen: 0/6
  Stomach: Lymphocytic aggregates: 0/6
[5]; oral Pam-3, Fig. 4a
  bodyweight (in words): no alterations in bodyweight
[5]; oral Pam-3, Fig. 4b
  serum glutamic oxaloacetic transaminase vs PBS (in words): no significant differences
[5]; oral Pam-3, Fig. 4c
  serum creatinine vs PBS (in words): no significant differences
[5]; [9]
  Creatinin: 0.7 mg/dL and 0.3 mg/dL
  GOT: 56 U/I and 83 U/I and 71 U/I and 622 U/I
[5]; [10]
  Creatinin: 0.4 mg/dL and 0.5 mg/dL and 0.3 mg/dL and 0.2 mg/dL and 0.6 mg/dL
  GOT: 271 U/I and 163 U/I and 240 U/I and 280 U/I and 771 U/I and 499 U/I
[5]; treated twice with 125 µg orally, N = 5
  Bodyweight loss: 98.6047% and 99.4355% and 98.663% and 99.2814% and 97.8588%
[5]; treated twice with 250 µg orally, N = 6
  Bodyweight loss: 97.5318% and 97.8707% and 99.133% and 99.7222% and 99.016% and 101.461%
S. aureus NCTC8325
  bacterial morphology, TEM (in words): strong cell envelope damage with disrupted membranes and pores in most of the cells
[6]; 18 different bacteria, three experiments each
  effective concentrations (LC99.9) across the panel: 4.69 to 18.75 µM
[6]; 18 different bacteria, three experiments each, peer review file
  overall measured mean effective concentration: 9.38 µM
[6]; broth microdilution, ESKAPE panel
  bactericidal activity (in words): highly effective
[7]
  antimicrobial activity (in words): potent inhibition
